According to patent publication US20250228785A1, “MICROCAPSULE, PREPARATION METHOD THEREFOR, AND USE THEREOF IN PREVENTING AND/OR TREATING DAMAGE TO SALIVARY GLANDS CAUSED BY RADIATION THERAPY” (CAPITAL MEDICAL UNIVERSITY, priority 2021, published 2025):
Marks after values point to notes of the source that are not given here.

Columns and labels:
[1] = Nitrate content in the blood of mice after single gastric gavage; format: in vivo; conditions: ICR mice, 2 mmol/kg sodium nitrate single gastric gavage
Procedure: A total of 40 ICR mice (male, 20±4 g) were randomly divided into 4 groups of 10 mice each. […] Blood was collected from vena caudalis at 0 h, and 2, 4, 6, 12, and 24 h after gastric gavage, respectively.

[2] = system: human submandibular gland epithelial cell line (HSG); test: RTCA cell proliferation after single X-ray irradiation with drugs; format: cell-based; conditions: Table 5 and FIG. 7
Excerpt: 2) The proliferation plate were taken out, and the medium was refreshed. […] The cells were subjected to single X-ray (RAD SOURCE 2000) irradiation at a dose of 1.22 gy/min and a total dose of 2 gy.
3) After irradiation, detection was continuously carried out.

[3] = system: submandibular gland acinar cells; test: Vacuole area in submandibular gland acinar cells (HE staining); format: in vivo; conditions: SD rats, high dose 40.5 mM, 8 weeks after radiotherapy
Excerpt: At 8 weeks after radiotherapy, the micrographs (×40) of the HE stained submandibular gland tissues of the rats in each experimental group were shown in FIG. 9A on the right of the panel of FIG. 9. See FIG. 9B on the left of the panel of FIG. 9.

AQP5 = AQP5 expression level in submandibular gland acinar cells (immunofluorescence); format: in vivo; conditions: SD rats, 8 weeks after radiotherapy
Excerpt: The immunofluorescence staining photographs (×20 under microscope) of the paraffin sections of the submandibular gland of the rats in each experimental group at 8 weeks after radiotherapy, and the quantitation results of the expression levels of AQP5 in the submandibular gland acinar cells in each group were shown in FIG. 10 and Table 8.

[4] = Nitrate content in saliva of rats after radiotherapy; format: in vivo; conditions: SD rats, 4 and 8 weeks after radiotherapy
rat salivary gland = test: Salivary flow rate of rats before and after radiotherapy; conditions: SD rats
[5] = Serum biochemical detection at 8 weeks after radiotherapy; conditions: SD rats, 8 weeks after submandibular gland irradiation
[6] = system: human submandibular gland epithelial cell line (HSG); test: RTCA cell proliferation after addition of drugs (no irradiation); conditions: microcapsules 0.25 mM, nitrate 0.5 mM
[7] = HE staining of sections of major organs (heart, liver, spleen, lung, kidney); conditions: SD rats
[8] = high dose 40.5 mM in drinking water
[9] = low dose 20.25 mM in drinking water

## O=[N+]([O-])[O-].[Na+] [Sodium nitrate, sodium nitrate]
[1]; 0 h
  Nitrate content in the blood: 41.8 µmol/L
[1]; 2 h
  Nitrate content in the blood: 1052.8 µmol/L
[1]; 4 h
  Nitrate content in the blood: 572.4 µmol/L
[1]; 6 h
  Nitrate content in the blood: 297.4 µmol/L
[1]; 12 h
  Nitrate content in the blood: 45.3 µmol/L
[1]; 24 h
  Nitrate content in the blood: 32.7 µmol/L
[2]
  effect on proliferation of submandibular gland epithelial cells after single irradiation: promote the proliferation
[3]
  vacuole area in submandibular gland acinar cells as compared with IR group: significantly decreased
AQP5; high dose 40.5 mM
  expression level of AQP5 versus IR group: significantly different
AQP5; low dose 20.25 mM
  expression level of AQP5 versus IR group: significantly different
[4]
  nitrate content in saliva, course after administration: relatively stable
Rat salivary gland; high dose 40.5 mM in drinking water, 1 W after radiotherapy
  salivary flow rate: 0.48 ± 0.25 ml/20 min
Rat salivary gland; high dose 40.5 mM in drinking water, 2 W after radiotherapy
  salivary flow rate: 1.12 ± 0.20^a ml/20 min
Rat salivary gland; high dose 40.5 mM in drinking water, 4 W after radiotherapy
  salivary flow rate: 0.91 ± 0.17^a ml/20 min
Rat salivary gland; high dose 40.5 mM in drinking water, 6 W after radiotherapy
  salivary flow rate: 0.80 ± 0.09^a ml/20 min
Rat salivary gland; high dose 40.5 mM in drinking water, 8 W after radiotherapy
  salivary flow rate: 0.81 ± 0.13 ml/20 min
Rat salivary gland; high dose 40.5 mM in drinking water, first column 1 W (1 week before radiotherapy)
  salivary flow rate: 1.37 ± 0.24 ml/20 min
Rat salivary gland; low dose 20.25 mM in drinking water, 1 W after radiotherapy
  salivary flow rate: 0.60 ± 0.25 ml/20 min
Rat salivary gland; low dose 20.25 mM in drinking water, 2 W after radiotherapy
  salivary flow rate: 0.95 ± 0.01^a ml/20 min
Rat salivary gland; low dose 20.25 mM in drinking water, 4 W after radiotherapy
  salivary flow rate: 0.82 ± 0.21^a ml/20 min
Rat salivary gland; low dose 20.25 mM in drinking water, 6 W after radiotherapy
  salivary flow rate: 0.74 ± 0.12 ml/20 min
Rat salivary gland; low dose 20.25 mM in drinking water, 8 W after radiotherapy
  salivary flow rate: 0.76 ± 0.09 ml/20 min
Rat salivary gland; low dose 20.25 mM in drinking water, first column 1 W (1 week before radiotherapy)
  salivary flow rate: 1.34 ± 0.26 ml/20 min
[5]; [8]
  ALP: 112.00 ± 19.69 U/L
  ALT: 49.20 ± 10.30 U/L
  AST: 116.20 ± 9.44 U/L
  Alb: 8.66 ± 0.87 g/L
  Ca: 2.41 ± 0.14 mmol/L
  Cr: 46.7 ± 14.59 µmol/L
  D-Bil: 1.8 ± 1.21 µmol/L
  GGT: 5.00 ± 0.71 U/L
  Glb: 45.42 ± 3.88 g/L
  HDL-C: 2.09 ± 0.43 mmol/L
  I-Bil: 1.73 ± 1.57 µmol/L
  K: 5.10 ± 0.45 mmol/L
  LDH: 747.40 ± 165.67 U/L
  LDL-C: 0.24 ± 0.06 mmol/L
  Na: 141.66 ± 1.62 mmol/L
  P: 2.77 ± 1.01 mmol/L
  T-Bil: 3.52 ± 2.00 µmol/L
  TC: 1.87 ± 0.38 mmol/L
  TCO2: 30.12 ± 3.07 mmol/L
  TG: 0.31 ± 0.38 mmol/L
  TP: 54.08 ± 4.11 g/L
  Urea: 5.78 ± 1.21 mmol/L
[5]; [9]
  ALP: 95.00 ± 52.85 U/L
  ALT: 46.60 ± 16.80 U/L
  AST: 123.80 ± 38.49 U/L
  Alb: 8.20 ± 1.32 g/L
  Ca: 2.39 ± 0.09 mmol/L
  Cr: 47.82 ± 12.95 µmol/L
  D-Bil: 1.43 ± 0.40 µmol/L
  GGT: 5.60 ± 0.89 U/L
  Glb: 44.68 ± 1.80 g/L
  HDL-C: 2.13 ± 0.71 mmol/L
  I-Bil: 1.43 ± 1.07 µmol/L
  K: 5.31 ± 0.48 mmol/L
  LDH: 1212.44 ± 728.19 U/L
  LDL-C: 0.27 ± 0.06 mmol/L
  Na: 140.72 ± 1.47 mmol/L
  P: 2.37 ± 0.22 mmol/L
  T-Bil: 2.52 ± 1.37 µmol/L
  TC: 2.05 ± 0.71 mmol/L
  TCO2: 30.26 ± 2.68 mmol/L
  TG: 0.57 ± 0.42 mmol/L
  TP: 52.88 ± 2.40 g/L
[6]
  effect on proliferation of submandibular gland epithelial cells under normal conditions: promote the proliferation
[7]; continuous administration of 40.5 mM for 9 weeks
  effect on the organs in the body of the rats: no significant effect
[7]; high dose 40.5 mM, 8 weeks after radiotherapy, FIG. 12
  abnormality in the major organs, HE stained sections: no abnormality

## O=C1O[C@H]([C@@H](O)CO)C(O)=C1O [Vc, vitamin C]
[2]
  effect on proliferation of submandibular gland epithelial cells after single irradiation: promote the proliferation
